# Paper PMC7845544 (Frontiers in Pharmacology, 2021)
# “Also recorded” adds a separate entry of the source. Where two headings read alike, the source gives them in different places.
# Assays:
# hTSHR = target: T1, hTSHR (Homo sapiens, UniProt P16473); assay: cAMP (HTRF) in CHO cells transfected with hTSHR; assay type: cell-based; settings: for Ratio of EC50 TSHR/FSHR: CHO assays; for EC50: compounds in presence of EC20 ligand (Figure 1 legend); for EC50 / % Response, CHO-hTSHR: mean ± SEM; for % Response, CHO-hTSHR: maximal cAMP vs maximal response of TSH
# T1 construct: expressed in transfected cells
# T1 sequence (P16473 21-764): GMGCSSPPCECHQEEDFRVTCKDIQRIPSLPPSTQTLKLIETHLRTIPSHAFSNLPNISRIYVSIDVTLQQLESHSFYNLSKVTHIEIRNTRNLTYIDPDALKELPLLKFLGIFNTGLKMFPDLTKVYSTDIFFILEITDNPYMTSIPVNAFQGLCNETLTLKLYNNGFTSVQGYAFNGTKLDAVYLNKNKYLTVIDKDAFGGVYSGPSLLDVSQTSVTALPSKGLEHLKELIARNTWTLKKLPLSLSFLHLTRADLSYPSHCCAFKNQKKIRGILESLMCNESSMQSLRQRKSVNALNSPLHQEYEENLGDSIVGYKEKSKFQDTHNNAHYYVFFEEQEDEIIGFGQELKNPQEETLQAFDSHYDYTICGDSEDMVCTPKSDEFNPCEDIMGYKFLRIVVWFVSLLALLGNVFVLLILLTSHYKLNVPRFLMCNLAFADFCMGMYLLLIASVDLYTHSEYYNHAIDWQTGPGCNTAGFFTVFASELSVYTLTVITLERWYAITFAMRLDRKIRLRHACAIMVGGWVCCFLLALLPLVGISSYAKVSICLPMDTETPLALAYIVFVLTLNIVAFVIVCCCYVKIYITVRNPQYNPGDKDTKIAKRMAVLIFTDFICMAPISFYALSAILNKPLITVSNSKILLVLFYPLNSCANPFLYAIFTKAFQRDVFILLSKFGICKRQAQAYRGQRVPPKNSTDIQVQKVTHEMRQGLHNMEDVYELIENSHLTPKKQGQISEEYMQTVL
# Procedure: Chinese hamster ovary (CHO) cells transfected with hFSHR, hLHR or hTSHR were grown as described previously ([Kelton et al., 1992]; [Persani et al., 1993]; [Yu et al., 2014]). In brief, CHO-hFSHR and CHO-hTSHR were maintained in DMEM/F12 + 10% FBS in T150 culture flasks. The cells were cultured until they reached 70–80% confluence (three days) and were then used for assays or passaged. CHO-hLHR ([van de Lagemaat et al., 2009]; [Sriraman et al., 2014]) was cultured in MEM alpha (++) +10% FBS and G418, and passaged every three days. CHO-hFSHR or −hLHR or −hTSR cells (2,500/well) were plated in 5 µL of phenol red free DMEM/F12 + 1% FBS in 384 well solid white low volume plates (Greiner 784075) by Multidrop. […] The plates were incubated at 37°C for 1 h. After the incubation period, cAMP was measured by HTRF® (homogeneous time-resolved fluorescence) assay (CisBio, Bedford, MA). In brief, conditioned media were incubated with cryptate-labeled cAMP antibody and d2-labeled cAMP in lysis buffer for 1 h. Free cAMP produced by cells competes with cAMP-d2 for binding to the anti-cAMP cryptate. An increase in cellular cAMP leads to a decrease in fluorescence resonance energy transfer, which is detectable as a decrease in the emission at 665 nm, measured by Envision fluorescence reader (PerkinElmer, Waltham, MA). The readout was calculated fluorescence ratio (665/620 nm). Values given in percent (%) indicate the percent response at a certain concentration of agonist relative to the maximum response of the protein ligand standard.
# rat granulosa cells = assay: Rat granulosa cell assay measuring secreted estradiol; assay type: cell-based; settings: for % Response, estradiol, +EC20 FSH / EC50 / % Response, estradiol, No FSH: 24 h, mean ± SEM; for fold improvement of EC50 for estradiol production by low concentration of rec-hFSH: rec-hFSH 0.2 pM
# Procedure: All animals were maintained and handled under IACUC approved procedures at the respective institutions providing contracted service for TocopheRx, following procedures previously approved by local (MA, United States) IACUC reviews ([Sriraman et al., 2014]; [Yu et al., 2014]). Ovarian follicular granulosa cells were isolated from rats implanted with DES pellets (1 mg/day; 7-days release) at ChemPartner (Shanghai, China). The pellets were implanted subcutaneously on 22 day old rats with trochar, employing aseptic techniques after isoflurane anesthesia. Animals were euthanized on post-op day 3, ovaries were excised, cleaned, and granulosa cells were isolated by repeated disruption of the follicle as described previously. Granulosa cells isolated from four to five rats were used to culture one 96-well plate and an equal number of cells was plated in each well. The cells were cultured overnight at 37°C in media containing 5% FBS.
# After overnight culture, the media was replaced with serum free media containing 0.1% BSA and 100 nM androstenedione. […] After 24 h of treatment, supernatant was collected and estradiol concentration was determined by ELISA (DRG, Mountainside, NJ, United States). The optical densities of the estradiol ELISA were measured by Spectramax (Sunnyvale, CA, United States). The values were analyzed in Microsoft Excel and Graphpad Prism (San Diego, CA, United States).
# CYP3A4 [1] = target: T2, CYP3A4 (Homo sapiens, UniProt P08684); assay: Cytochrome P450 inhibition; assay type: in vitro ADME; settings: b51 words it as 52% of vehicle
# T2 sequence (P08684 whole entry): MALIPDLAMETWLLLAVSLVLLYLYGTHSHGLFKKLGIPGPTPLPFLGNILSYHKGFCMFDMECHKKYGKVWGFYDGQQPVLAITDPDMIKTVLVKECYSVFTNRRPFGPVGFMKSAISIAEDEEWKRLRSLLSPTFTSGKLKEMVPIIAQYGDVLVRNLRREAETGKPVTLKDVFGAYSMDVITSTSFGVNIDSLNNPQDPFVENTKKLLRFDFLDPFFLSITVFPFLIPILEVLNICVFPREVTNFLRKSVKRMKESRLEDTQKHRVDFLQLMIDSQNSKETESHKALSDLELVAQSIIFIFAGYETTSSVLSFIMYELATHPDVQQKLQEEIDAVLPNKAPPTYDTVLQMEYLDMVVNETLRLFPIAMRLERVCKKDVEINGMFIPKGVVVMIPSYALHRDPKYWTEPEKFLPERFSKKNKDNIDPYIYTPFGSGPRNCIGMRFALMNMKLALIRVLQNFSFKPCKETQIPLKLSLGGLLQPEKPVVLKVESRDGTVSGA
# CYP3A4 [2] = target: T2, CYP3A4; assay: CYP time dependent inhibition; assay type: in vitro ADME
# Mouse pharmacokinetics = assay type: in vivo; settings: 5 mg/kg; for Mouse PK F%: oral bioavailability
# immature SD rats = assay: Superovulation assay in immature rats; assay type: in vivo, rat; settings: for minimal effective dose, cumulus oocyte complexes (COC): with low dose rec-hFSH (0.29 IU)
# Procedure: Immature SD rats and B6C3F1 mice (both 18–21 day old females) were purchased from Charles-River laboratories (Wilmington, MA, United States and Shanghai, China). All animals were treated in accordance to Chempartner (Shanghai, China) or Embryotech (Haverhill, MA, United States) IACUC approved animal protocols. The animals were provided water and food ad libitum and housed under 12 h dark and 12 h light schedules.
# Immature rats and mice were used to investigate the ability of the small molecules to induce follicular development and support ovulation as described elsewhere ([Steelman and Pohley, 1953]) with modifications ([Sriraman et al., 2014]). […] The isolated COC’s were treated with hyaluronidase and the total number of ovulated oocytes was determined microscopically.
# Plasma concentrations of FSHR-AA were measured during superovulation assays, except for experiments where plasma was collected for estradiol measurements.
# [3] = microsomes
# [4] = microsomes; remark: listed apart in the source
# [5] = mouse, microsomes
# hERG = hERG (Homo sapiens, UniProt Q12809); assay: hERG channel inhibition (Cyprotex); assay type: biochemical
# hERG, sequence (Q12809 whole entry): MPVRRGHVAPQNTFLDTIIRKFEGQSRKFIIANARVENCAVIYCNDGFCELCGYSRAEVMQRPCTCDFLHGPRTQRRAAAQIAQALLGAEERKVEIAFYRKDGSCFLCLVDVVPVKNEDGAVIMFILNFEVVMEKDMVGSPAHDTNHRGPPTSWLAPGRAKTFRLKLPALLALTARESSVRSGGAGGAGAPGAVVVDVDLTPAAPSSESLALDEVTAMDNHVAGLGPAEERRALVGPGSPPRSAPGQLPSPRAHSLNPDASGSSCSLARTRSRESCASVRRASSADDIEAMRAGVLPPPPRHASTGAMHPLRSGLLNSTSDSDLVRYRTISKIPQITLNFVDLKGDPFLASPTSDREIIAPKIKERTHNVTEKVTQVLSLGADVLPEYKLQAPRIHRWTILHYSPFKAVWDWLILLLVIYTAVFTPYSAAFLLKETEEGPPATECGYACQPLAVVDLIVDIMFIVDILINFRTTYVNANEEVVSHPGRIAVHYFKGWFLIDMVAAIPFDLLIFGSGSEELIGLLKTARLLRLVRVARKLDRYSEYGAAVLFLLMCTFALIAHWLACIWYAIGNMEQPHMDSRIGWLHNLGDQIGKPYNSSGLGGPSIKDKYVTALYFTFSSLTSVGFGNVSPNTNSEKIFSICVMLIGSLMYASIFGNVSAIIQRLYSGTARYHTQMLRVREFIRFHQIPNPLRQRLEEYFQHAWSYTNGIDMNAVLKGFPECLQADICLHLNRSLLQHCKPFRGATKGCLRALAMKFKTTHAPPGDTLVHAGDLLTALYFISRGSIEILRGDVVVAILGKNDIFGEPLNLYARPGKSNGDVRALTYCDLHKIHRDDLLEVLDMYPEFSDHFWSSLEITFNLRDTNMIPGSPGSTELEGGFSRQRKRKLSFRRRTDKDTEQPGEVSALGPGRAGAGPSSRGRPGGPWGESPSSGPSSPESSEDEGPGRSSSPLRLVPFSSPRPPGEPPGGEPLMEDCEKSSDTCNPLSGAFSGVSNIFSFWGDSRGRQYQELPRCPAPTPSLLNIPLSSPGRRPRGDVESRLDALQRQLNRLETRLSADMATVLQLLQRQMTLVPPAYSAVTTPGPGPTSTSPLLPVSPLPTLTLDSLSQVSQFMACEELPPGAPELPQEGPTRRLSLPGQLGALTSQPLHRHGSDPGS
# Adenosine A3 receptor = settings: dose response
# [6] = +EC20 FSH, read-out: EC50 (M), estradiol, +EC20 FSH
# [7] = No FSH, read-out: EC50 (M), estradiol, No FSH
Compound,Ratio of EC50 TSHR/FSHR (hTSHR),EC50 (hTSHR) [µM],"% Response, CHO-hTSHR (hTSHR) [%]","% Response, estradiol, +EC20 FSH (rat granulosa cells; +EC20 FSH) [%]",EC50 (rat granulosa cells; [6]) [M],"% Response, estradiol, No FSH (rat granulosa cells; No FSH) [%]",EC50 (rat granulosa cells; [7]) [M],fold improvement of EC50 for estradiol production by low concentration of rec-hFSH (rat granulosa cells) [fold],CYP TDI (3A4) (CYP3A4 [2]),Mouse PK AUC (Mouse pharmacokinetics),Mouse PK Cmax (Mouse pharmacokinetics),Mouse PK T1/2 (Mouse pharmacokinetics) [h],Mouse PK F% (Mouse pharmacokinetics) [%],"minimal effective dose, cumulus oocyte complexes (COC) (immature SD rats; immature rat, oral) [mg/kg]","Clint, human [3] [µl/min/mg protein]","Clint, dog [4] [µl/min/mg protein]","Clint, mice [5] [µl/min/mg protein]",also measured
COc1cc(C(N)=O)cc(-c2cc3c(cc2OC)OCc2c(C(=O)N(C)C(C)(C)C)nn(-c4cc(Cl)cc(Cl)c4)c2-3)n1 [TOP5668],77,0.17,92.28 ± 0.88,117 ± 8,7.33e-08,93,1.82e-07,2,Negative,"2,494 ng*h/ml",312 ng/mL,3.57,26,2.5,20,44,10,"fold more potent than TOP5300, rat granulosa cells (rat granulosa cells; estradiol production): 5 fold; CYP inh @ 10 µM, CYP3A4 (midazolam) (CYP3A4 [1]): CYP3A4 (midazolam) = 50.6%; fold more potent than TOP5300, superovulation dose response (immature SD rats; immature rat): approximately 2 fold"
COc1cc2c(cc1-c1cnn(CCO)c1)-c1c(c(C(=O)N(C)C(C)(C)C)nn1-c1cc(Cl)cc(Cl)c1)CO2 [TOP5300],52,0.505,84.97 ± 0.85,125 ± 12,1.75e-07,65 ± 6,8.68e-07,2,Negative,"5,533 ng*h/ml","1,133 ng/ml",2.5,22,5,37,37,19,"number of COCs vs 1.16 IU rec-hFSH (immature SD rats; 50 mg/kg, oral, with 0.29 IU rec-hFSH): not significantly different from 1.16 IU rec-hFSHH; serum estradiol-17β production (immature SD rats; 5, 10 and 25 mg/kg, immature rat): followed the follicular stimulation response; follicular maturation with or without supplemental rec-hFSH (0.29 IU) (immature SD rats; immature rat, oral): full agonist; single daily dose (QD) vs twice daily (BID) administration, follicular maturation (immature SD rats; immature rat, oral gavage, with 0.29 IU FSH): stimulates similar follicular growth; also recorded: equally effective as twice daily administrations; hERG assay result (hERG): inactive; hERG channel inhibition @ 10 uM (hERG; 10 uM): 16 % inhibition; selectivity / safety margin compared to FSHR, A3(h) (Adenosine A3 receptor): over 400 fold"
